The results in this text go back to patent US20240287124A1, “PRODRUGS OF 4'-SUBSTITUTED NUCLEOSIDE REVERSE TRANSCRIPTASE INHIBITORS” (Merck Sharp & Dohme LLC, priority 2023, published 2024).

A short description of data set [1]: Aqueous solubility in PBS, pH 7.4. The format is physicochemical. As to conditions: pH 7.4 phosphate buffered saline, 24 hours, amorphous or crystalline material; for solubility at 24 h: pH 7.4, aqueous buffer, thermodynamic from solid, read-out: Aqu. Solubility. The method, boiled down: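 Excess solid suspended at 0.5 mg/mL in PBS pH 7.4 and stirred 24 hours. Filtrate (0.45 μm) diluted 1:1 with ACN:H2O and quantified by UPLC against a standard curve; residual solid phase checked by XRPD and PLM.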

Data set [2] has as its system HIV-1 wild-type (R8) virus. Kind of data set: Viral KINetics in Green cells (VIKING) assay, HIV-1 replication in MT4-GFP reporter cells. It is filed as cell-based. As to conditions: MT4-GFP cells, HIV-1 wild-type (R8), read-out: Viking (10% NHS), IC50. The method, boiled down: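 Compounds in 3-fold, 10-point series (typical 4 μM-0.2 nM) in 10% normal human serum received MT4 GFP-reporter T cells pre-infected overnight with wild-type R8 virus (MOI ~0.01). Ratio of GFP-positive cells at 72 vs 48 h defined replication; IC50 from nonlinear 4-parameter dose-response fitting.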

The mark [3] stands for this setting: Human immunodeficiency virus 1, 10% normal human serum.

≈ marks a conversion by molar mass, not a printed value. Where two headings read alike, the source gives them in different places. Where only a bound is given, the exact number is not on record here.

One may read the solubility as the concentration that dissolves in the medium under given conditions. By IC50 is commonly meant the concentration that gives 50% inhibition. `C#C[C@]1(CO)O[C@@H](n2ccc3c(N)nc(Cl)nc32)C[C@@H]1OC(=O)OCc1oc(=O)oc1C` [Example 56, (2R,3S,5R)-5-(4-amino-2-chloro-7H-pyrrolo[2,3-d]pyrimidin-7-yl)-2-ethynyl-2-(hydroxymethyl)tetrahydrofuran-3-yl((5-methyl-2-oxo-1,3-dioxol-4-yl)methyl) carbonate]: the solubility at 24 h in data set [1] (phosphate buffered saline) was 122 µg/mL (≈ 262 µM). For the same molecule, the IC50 in data set [2] (setting [3]) is 2.3 nM.
With `C#C[C@]1(COC(=O)CCCCCCC)O[C@@H](n2ccc3c(N)nc(Cl)nc32)C[C@@H]1O` [Example 57, ((2R,3S,5R)-5-(4-amino-2-chloro-7H-pyrrolo[2,3-d]pyrimidin-7-yl)-2-ethynyl-3-hydroxytetrahydrofuran-2-yl)methyl octanoate], the solubility at 24 h in data set [1] (phosphate buffered saline) came out at 5 µg/mL (≈ 11.5 µM). The IC50 in data set [2] (setting [3]) was 2.6 nM.
The matching figures for `C#C[C@]1(CO)O[C@@H](n2ccc3c(N)nc(Cl)nc32)C[C@@H]1OC(=O)CCCCCC` [Example 58, (2R,3S,5R)-5-(4-amino-2-chloro-7H-pyrrolo[2,3-d]pyrimidin-7-yl)-2-ethynyl-2-(hydroxymethyl)tetrahydrofuran-3-yl heptanoate]: below 1 µg/mL and 1.9 nM.
For `C#C[C@]1(CO)O[C@@H](n2ccc3c(N)nc(Cl)nc32)C[C@@H]1OC(=O)CCCCC` [Example 59, (2R,3S,5R)-5-(4-amino-2-chloro-7H-pyrrolo[2,3-d]pyrimidin-7-yl)-2-ethynyl-2-(hydroxymethyl)tetrahydrofuran-3-yl hexanoate], in that order: 16 µg/mL (≈ 39.3 µM) and 2.8 nM.
In the case of `C#C[C@]1(CO)O[C@@H](n2ccc3c(N)nc(Cl)nc32)C[C@@H]1OC(=O)CCCc1ccccc1` [Example 60, (2R,3S,5R)-5-(4-amino-2-chloro-7H-pyrrolo[2,3-d]pyrimidin-7-yl)-2-ethynyl-2-(hydroxymethyl)tetrahydrofuran-3-yl 4-phenylbutanoate], the solubility at 24 h in data set [1] (phosphate buffered saline) is below 1 µg/mL. For the same molecule, the IC50 in data set [2] (setting [3]) was 3.5 nM.
For `C#C[C@]1(CO)O[C@@H](n2ccc3c(N)nc(Cl)nc32)C[C@@H]1OC(=O)OCCCCCC` [Example 61, (2R,3S,5R)-5-(4-amino-2-chloro-7H-pyrrolo[2,3-d]pyrimidin-7-yl)-2-ethynyl-2-(hydroxymethyl)tetrahydrofuran-3-yl hexyl carbonate], in that order: below 1 µg/mL and 4.5 nM.
Consider `C#C[C@]1(COC(=O)CCC23CC4CC(CC(C4)C2)C3)O[C@@H](n2ccc3c(N)nc(Cl)nc32)C[C@@H]1O` [Example 62, ((2R,3S,5R)-5-(4-amino-2-chloro-7H-pyrrolo[2,3-d]pyrimidin-7-yl)-2-ethynyl-3-hydroxytetrahydrofuran-2-yl)methyl 3-(adamantan-1-yl)propanoate], for which the solubility at 24 h in data set [1] (phosphate buffered saline) was below 1 µg/mL. For the same molecule, the IC50 in data set [2] (setting [3]) came to 3.9 nM.
`C#C[C@]1(CO)O[C@@H](n2ccc3c(N)nc(Cl)nc32)C[C@@H]1OC(=O)OCCc1ccccc1` [Example 64, (2R,3S,5R)-5-(4-amino-2-chloro-7H-pyrrolo[2,3-d]pyrimidin-7-yl)-2-ethynyl-2-(hydroxymethyl)tetrahydrofuran-3-yl phenethyl carbonate]: in data set [1] (phosphate buffered saline), the solubility at 24 h was below 1 µg/mL. Besides, the IC50 in data set [2] (setting [3]) is 4.6 nM.
Take `C#C[C@]1(CO)O[C@@H](n2ccc3c(N)nc(Cl)nc32)C[C@@H]1OC(=O)CC` [Example 65, (2R,3S,5R)-5-(4-amino-2-chloro-7H-pyrrolo[2,3-d]pyrimidin-7-yl)-2-ethynyl-2-(hydroxymethyl)tetrahydrofuran-3-yl propionate]: the solubility at 24 h in data set [1] (phosphate buffered saline) was found to be 224 µg/mL (≈ 614 µM). In addition, in data set [2] (setting [3]), the half-maximal inhibitory concentration (IC50) was 26 nM.
Consider `C#C[C@]1(COC(=O)OCc2ccccc2)O[C@@H](n2ccc3c(N)nc(Cl)nc32)C[C@@H]1OC(=O)OCCCCCC` [Example 68, ((2R,3S,5R)-5-(4-amino-2-chloro-7H-pyrrolo[2,3-d]pyrimidin-7-yl)-2-ethynyl-3-(((hexyloxy)carbonyl)oxy)tetrahydrofuran-2-yl)methylbenzyl carbonate], for which the solubility at 24 h in data set [1] (phosphate buffered saline) was below 1 µg/mL. Moreover, the IC50 in data set [2] (setting [3]) was 6.5 nM.
As for `C#C[C@]1(COC(=O)Cc2ccc(Br)cc2)O[C@@H](n2ccc3c(N)nc(Cl)nc32)C[C@@H]1O` [Example 73, ((2R,3S,5R)-5-(4-amino-2-chloro-7H-pyrrolo[2,3-d]pyrimidin-7-yl)-2-ethynyl-3-hydroxytetrahydrofuran-2-yl)methyl 2-(4-bromophenyl)acetate], the solubility at 24 h in data set [1] (phosphate buffered saline) is 24 µg/mL (≈ 47.5 µM). In addition, the IC50 in data set [2] (setting [3]) was 3.2 nM.
For the molecule `C#C[C@]1(COC(=O)CCCC[C@@H]2SC[C@@H]3NC(=O)N[C@@H]32)O[C@@H](n2ccc3c(N)nc(Cl)nc32)C[C@@H]1OC(=O)CCCC[C@@H]1SC[C@@H]2NC(=O)N[C@@H]21` [Example 74], in data set [1] (phosphate buffered saline), the solubility at 24 h is below 1 µg/mL. The IC50 in data set [2] (setting [3]) stood at 69 nM.
Take `C#C[C@]1(COP(=O)(N[C@@H](C)C(=O)OC(C)C)Oc2ccc3ccccc3c2)O[C@@H](n2ccc3c(N)nc(Cl)nc32)C[C@@H]1O` (some centres unmarked) [Example 75]: the solubility at 24 h in data set [1] was found to be 30 µg/mL (≈ 47.8 µM). The IC50 in data set [2] (setting [3]) is 47 nM.
For the molecule `C#C[C@]1(COP(=O)(N[C@@H](C)C(=O)OC(C)C)Oc2ccc3ccccc3c2)O[C@@H](n2ccc3c(N)nc(Cl)nc32)C[C@@H]1O` (some centres unmarked) [Example 76], the “Aqu. Solubility” value in data set [1] came to 23 µg/mL. Further, in data set [2] (10% normal human serum), the IC50 turned out to be 31 nM.
Turning to `C#C[C@]1(CO)O[C@@H](n2ccc3c(N)nc(Cl)nc32)C[C@@H]1OC(=O)C1CCCCC1` [Example 77], the solubility at 24 h in data set [1] (phosphate buffered saline) came out at 14 µg/mL (≈ 33.4 µM). In addition, in data set [2] (setting [3]), the IC50 came out at 5 nM.
`C#C[C@]1(CO)O[C@@H](n2ccc3c(N)nc(Cl)nc32)C[C@@H]1OC(=O)OCC(CC)CC` [Example 78]: in data set [1] (phosphate buffered saline), the solubility at 24 h was found to be 2 µg/mL (≈ 4.58 µM). In addition, the IC50 in data set [2] (setting [3]) stood at 6.7 nM.
Regarding `C#C[C@]1(CO)O[C@@H](n2ccc3c(N)nc(Cl)nc32)C[C@@H]1OC(=O)OCCCCCCCC` [Example 79], the solubility at 24 h in data set [1] (phosphate buffered saline) is below 1 µg/mL. Moreover, the IC50 in data set [2] (setting [3]) stood at 4.3 nM.
With `C#C[C@]1(CO)O[C@@H](n2ccc3c(N)nc(Cl)nc32)C[C@@H]1OC(=O)OCCC` [Example 80], the solubility at 24 h in data set [1] (phosphate buffered saline) is 305 µg/mL (≈ 773 µM). In addition, the half-maximal inhibitory concentration (IC50) in data set [2] (setting [3]) is 10 nM.
On to `C#C[C@]1(CO)O[C@@H](n2ccc3c(N)nc(Cl)nc32)C[C@@H]1OC(=O)CCc1ccccc1` [Example 81], for which the solubility at 24 h in data set [1] (phosphate buffered saline) came out at 2 µg/mL (≈ 4.54 µM). Further, the IC50 in data set [2] (setting [3]) amounted to 3.3 nM.
Consider `C#C[C@]1(CO)O[C@@H](n2ccc3c(N)nc(Cl)nc32)C[C@@H]1OC(=O)OCCCC` [Example 82], for which the solubility at 24 h in data set [1] (phosphate buffered saline) amounted to 11 µg/mL (≈ 26.9 µM). Also, in data set [2] (setting [3]), the IC50 was determined as 4 nM.
The matching figures for `C#C[C@]1(CO)O[C@@H](n2ccc3c(N)nc(Cl)nc32)C[C@@H]1OC(=O)OC(CC)CC` [Example 84]: 69 µg/mL (≈ 163 µM) and 129 nM.
Turning to `C#C[C@]1(COC(=O)OC(CC)CC)O[C@@H](n2ccc3c(N)nc(Cl)nc32)C[C@@H]1O` [Example 86], the solubility at 24 h in data set [1] (phosphate buffered saline) turned out to be 145 µg/mL (≈ 343 µM). Also, the IC50 in data set [2] (setting [3]) turned out to be 13 nM.
For `C#C[C@]1(COC(=O)CCCCCCCCCCCCC)O[C@@H](n2ccc3c(N)nc(Cl)nc32)C[C@@H]1O` [Example 87], in that order: below 1 µg/mL and 3.8 nM.
For `C#C[C@]1(COC(=O)C2CCCCC2)O[C@@H](n2ccc3c(N)nc(Cl)nc32)C[C@@H]1O` [Example 88], in that order: 157 µg/mL (≈ 375 µM) and 4.4 nM.
For `C#C[C@]1(COC(=O)CC(C)(C)C)O[C@@H](n2ccc3c(N)nc(Cl)nc32)C[C@@H]1O` [Example 89], in data set [1] (phosphate buffered saline), the solubility at 24 h amounted to 365 µg/mL (≈ 897 µM). Also, the IC50 in data set [2] (setting [3]) came out at 29 nM.
For `C#C[C@]1(COC(=O)CCCCCCCCCCC)O[C@@H](n2ccc3c(N)nc(Cl)nc32)C[C@@H]1O` [Example 90], in that order: below 1 µg/mL and 3.9 nM.
For the molecule `C#C[C@]1(COC(=O)[C@H](C)c2ccccc2)O[C@@H](n2ccc3c(N)nc(Cl)nc32)C[C@@H]1O` [Example 100], in data set [1] (phosphate buffered saline), the solubility at 24 h is 72 µg/mL (≈ 163 µM). In addition, the IC50 in data set [2] (setting [3]) was found to be 2.5 nM.
In the case of `C#C[C@]1(COC(=O)[C@@H](C)c2ccccc2)O[C@@H](n2ccc3c(N)nc(Cl)nc32)C[C@@H]1O` [Example 101], in data set [1] (phosphate buffered saline), the solubility at 24 h is 19 µg/mL (≈ 43.1 µM). In data set [2] (setting [3]), the IC50 turned out to be 3.4 nM.
For `C#C[C@]1(COC(=O)OCCCCCCCC)O[C@@H](n2ccc3c(N)nc(Cl)nc32)C[C@@H]1OC(=O)CC` [Example 113], in that order: below 1 µg/mL and 26 nM.
The matching figures for `C#C[C@]1(COC(=O)OCc2ccccc2)O[C@@H](n2ccc3c(N)nc(Cl)nc32)C[C@@H]1O` [Example 114, ((2R,3S,5R)-5-(4-amino-2-chloro-7H-pyrrolo[2,3-d]pyrimidin-7-yl)-2-ethynyl-3-hydroxytetrahydrofuran-2-yl)methyl benzyl carbonate]: 66 µg/mL (≈ 149 µM) and 3.9 nM.
For `C#C[C@]1(COC(=O)OCC23CC4CC(CC(C4)C2)C3)O[C@@H](n2ccc3c(N)nc(Cl)nc32)C[C@@H]1O` [Example 115], in that order: below 1 µg/mL and 5.7 nM.
On to `C#C[C@]1(COC(=O)CCCCC)O[C@@H](n2ccc3c(N)nc(Cl)nc32)C[C@@H]1O` [Example 116], for which the solubility at 24 h in data set [1] (phosphate buffered saline) is 39 µg/mL (≈ 95.9 µM). Also, the IC50 in data set [2] (setting [3]) was 4.2 nM.
As to `C#C[C@]1(COC(=O)OCCCCCCCCCCCC)O[C@@H](n2ccc3c(N)nc(Cl)nc32)C[C@@H]1O` [Example 117], in data set [1] (phosphate buffered saline), the solubility at 24 h is below 1 µg/mL. Also, the IC50 in data set [2] (setting [3]) amounted to 4 nM.
The matching figures for `C#C[C@]1(COC(=O)CCCCCC)O[C@@H](n2ccc3c(N)nc(Cl)nc32)C[C@@H]1O` [Example 119]: 57 µg/mL (≈ 135 µM) and 3.5 nM.
